Source: ChEMBL document CHEMBL6127139, “Lysine-Targeted Covalent Inhibitors of PI3Kδ Synthesis and Screening by In Situ Interaction Upgradation” (J Med Chem, 2024)

Experiments:
[1] = molecular target: T1, Phosphatidylinositol 4,5-bisphosphate 3-kinase catalytic subunit delta isoform (Homo sapiens) (UniProt O00329); assay: Potency index, ratio of idelalisib IC50 to test compound IC50 for inhibition of recombinant PI3Kdelta (unknown origin) using PIP2:3PS as substrate preincubated for 20 mins followed by ATP addition and measured after 1 hrs by ADP-Glo reagent based assay; conditions: time 80.0 min
T1 sequence (whole entry): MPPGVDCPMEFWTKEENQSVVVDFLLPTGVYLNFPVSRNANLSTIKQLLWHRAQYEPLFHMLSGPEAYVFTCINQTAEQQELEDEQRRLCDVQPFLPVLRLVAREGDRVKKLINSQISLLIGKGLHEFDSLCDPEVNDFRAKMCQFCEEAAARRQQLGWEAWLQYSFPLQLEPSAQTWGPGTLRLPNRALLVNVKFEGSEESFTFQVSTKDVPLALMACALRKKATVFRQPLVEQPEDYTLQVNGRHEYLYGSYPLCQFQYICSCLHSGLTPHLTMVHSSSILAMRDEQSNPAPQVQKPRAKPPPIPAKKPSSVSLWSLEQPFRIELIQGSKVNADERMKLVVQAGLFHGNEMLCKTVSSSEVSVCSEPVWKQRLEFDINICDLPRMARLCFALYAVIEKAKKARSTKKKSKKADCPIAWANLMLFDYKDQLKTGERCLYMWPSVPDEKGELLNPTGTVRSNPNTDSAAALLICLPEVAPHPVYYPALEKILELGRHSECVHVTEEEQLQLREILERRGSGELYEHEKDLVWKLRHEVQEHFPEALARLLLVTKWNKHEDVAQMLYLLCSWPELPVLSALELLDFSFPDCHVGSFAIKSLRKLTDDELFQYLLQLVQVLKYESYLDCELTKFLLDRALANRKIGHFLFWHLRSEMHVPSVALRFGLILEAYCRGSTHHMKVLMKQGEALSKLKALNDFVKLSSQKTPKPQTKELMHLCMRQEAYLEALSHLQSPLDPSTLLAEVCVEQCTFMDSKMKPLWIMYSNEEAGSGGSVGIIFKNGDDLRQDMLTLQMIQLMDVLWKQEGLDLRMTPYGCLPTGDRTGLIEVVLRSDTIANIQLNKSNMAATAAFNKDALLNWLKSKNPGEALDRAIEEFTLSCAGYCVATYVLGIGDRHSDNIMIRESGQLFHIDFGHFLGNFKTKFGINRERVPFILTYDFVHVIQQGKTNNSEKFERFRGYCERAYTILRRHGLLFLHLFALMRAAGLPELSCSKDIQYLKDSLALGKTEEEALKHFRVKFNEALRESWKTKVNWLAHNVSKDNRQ

[2] = system: HCT-116; assay: Growth inhibition of human HCT-116 cells incubated for 72 hrs by MTT assay; type: functional
[3] = Selectivity ratio of GI50 for human HCT-116 cells to GI50 for PI3Kdelta overexpressing human SU-DHL-6; type: functional
[4] = molecular target: T1, Phosphatidylinositol 4,5-bisphosphate 3-kinase catalytic subunit delta isoform (Homo sapiens); assay: Covalent inhibition of PI3Kdelta (unknown origin) using PIP2:3PS as substrate assessed as second order rate constant (Kinact/Ki ratio) incubated upto 180 mins in presence of ATP by ADP-Glo reagent based assay
[5] = system: SU-DHL-6; assay: Induction of apoptosis in human SU-DHL-6 cells assessed as viable cells at 0.01 uM incubated for 48 hrs by Annexin V-FITC/PI staining based flow cytometric analysis (reference value: 89.81 %); type: functional; conditions: read-out: Activity

Ratio IC50 [1]: 10
GI50 [2]: 1350 nM
Ratio [4]: 1.76 10^5/M/s
SMILES: COc1ncc(-c2ccc3ncnc(N[C@H]4CCN(C(=O)C5CCOCC5)C4)c3n2)cc1C(=O)Oc1ccccc1
RatioGI50 [3]: 2500
viability at 0.01 µM [5]: 85%
